Laboratory results: ChEMBL document CHEMBL1201861, “Genomics of Drug Sensitity in Cancer screening data, Wellcome Trust Sanger Institute”

How the values were obtained:
Experiment in all cases: cells
TE-8 = format: functional, cell-based, Homo sapiens; details: Homo sapiens, TE-8;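 further: growth inhibition of TE-8 cells, measured with a cell viability readout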
Description: SANGER: Inhibition of human TE-8 cell growth in a cell viability assay.

HC-1 = format: functional, cell-based, Homo sapiens; details: Homo sapiens, HC-1;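 further: growth inhibition of HC-1 cells measured by a cell viability assay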
Description: SANGER: Inhibition of human HC-1 cell growth in a cell viability assay.

EW-11 = format: functional, cell-based, Homo sapiens; details: Homo sapiens, EW-11;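 further: growth inhibition of human EW-11 cells, measured with a cell viability assay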
Description: SANGER: Inhibition of human EW-11 cell growth in a cell viability assay.

LB771-HNC = format: functional, cell-based, Homo sapiens; details: Homo sapiens, LB771-HNC;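 further: growth inhibition of LB771-HNC human cells, read out with a cell viability assay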
Description: SANGER: Inhibition of human LB771-HNC cell growth in a cell viability assay.

MZ7-mel = format: functional, cell-based, Homo sapiens; details: Homo sapiens, MZ7-mel;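 further: growth inhibition of human MZ7-mel cells, measured by a cell viability assay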
Description: SANGER: Inhibition of human MZ7-mel cell growth in a cell viability assay.

U-87 MG = format: functional, cell-based, Homo sapiens, U-87MG ATCC; details: Homo sapiens, U-87 MG;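 further: growth inhibition of the cells measured with a viability assay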
Description: SANGER: Inhibition of human U-87-MG cell growth in a cell viability assay.

P30-OHK = format: functional, cell-based, Homo sapiens; details: Homo sapiens, P30-OHK;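 further: growth inhibition of the P30-OHK cell line, read out with a cell viability assay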
Description: SANGER: Inhibition of human P30-OHK cell growth in a cell viability assay.

MOLT-4 = format: functional, cell-based, Homo sapiens; details: Homo sapiens, MOLT-4;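 further: growth inhibition of MOLT-4 cells, determined with a cell viability readout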
Description: SANGER: Inhibition of human MOLT-4 cell growth in a cell viability assay.

RCC10RGB = format: functional, cell-based, Homo sapiens; details: Homo sapiens, RCC10RGB;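 further: growth inhibition of human RCC10RGB cells, read out by a cell viability assay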
Description: SANGER: Inhibition of human RCC10RGB cell growth in a cell viability assay.

HD-MY-Z = format: functional, cell-based, Homo sapiens; details: Homo sapiens, HD-MY-Z;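 further: growth inhibition of HD-MY-Z cells, read out with a cell viability assay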
Description: SANGER: Inhibition of human HD-MY-Z cell growth in a cell viability assay.

ES7 = format: functional, cell-based, Homo sapiens; details: Homo sapiens, ES7;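 further: growth inhibition of cultured human ES7 cells, read out as cell viability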
Description: SANGER: Inhibition of human ES7 cell growth in a cell viability assay.

SW872 = format: functional, cell-based, Homo sapiens; details: Homo sapiens, SW872;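 further: growth inhibition of SW872 cells, read out by a viability assay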
Description: SANGER: Inhibition of human SW872 cell growth in a cell viability assay.

HAL-01 = format: functional, cell-based, Homo sapiens; details: Homo sapiens, HAL-01;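 further: growth inhibition of human HAL-01 cells, read out with a cell viability assay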
Description: SANGER: Inhibition of human HAL-01 cell growth in a cell viability assay.

NCI-H446 = format: functional, cell-based, Homo sapiens; details: Homo sapiens, NCI-H446;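 further: growth inhibition of NCI-H446 cells determined by a cell viability assay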
Description: SANGER: Inhibition of human NCI-H446 cell growth in a cell viability assay.

LB831-BLC = format: functional, cell-based, Homo sapiens; details: Homo sapiens, LB831-BLC;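 further: growth inhibition of LB831-BLC cells, read out with a cell viability assay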
Description: SANGER: Inhibition of human LB831-BLC cell growth in a cell viability assay.

SNB-75 = format: functional, cell-based, Homo sapiens; details: Homo sapiens, SNB-75;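 further: cell viability assay measuring growth inhibition of human SNB-75 cells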
Description: SANGER: Inhibition of human SNB75 cell growth in a cell viability assay.

Mo = format: functional, cell-based, Homo sapiens; details: Homo sapiens, Mo
Description: SANGER: Inhibition of human Mo-T cell growth in a cell viability assay.

BV-173 = format: functional, cell-based, Homo sapiens; details: Homo sapiens, BV-173
Description: SANGER: Inhibition of human BV-173 cell growth in a cell viability assay.

MHH-PREB-1 = format: functional, cell-based, Homo sapiens; details: Homo sapiens, MHH-PREB-1;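 further: cell viability assay measuring inhibition of proliferation of human MHH-PREB-1 cells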
Description: SANGER: Inhibition of human MHH-PREB-1 cell growth in a cell viability assay.

HL-60 = format: functional, cell-based, Homo sapiens; details: Homo sapiens, HL-60;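 further: growth inhibition of human HL-60 cells, read out with a cell viability assay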
Description: SANGER: Inhibition of human HL-60 cell growth in a cell viability assay.

ETK-1 = format: functional, cell-based, Homo sapiens; details: Homo sapiens, ETK-1;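 further: growth inhibition of human ETK-1 cells, read out with a cell viability assay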
Description: SANGER: Inhibition of human ETK-1 cell growth in a cell viability assay.

TE-5 = format: functional, cell-based, Homo sapiens; details: Homo sapiens, TE-5;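 further: inhibition of cell growth, read out by a cell viability assay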
Description: SANGER: Inhibition of human TE-5 cell growth in a cell viability assay.

SCC-15 = format: functional, cell-based, Homo sapiens; details: Homo sapiens, SCC-15;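 further: growth inhibition of SCC-15 cells, read out with a cell viability assay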
Description: SANGER: Inhibition of human SCC-15 cell growth in a cell viability assay.

MFM-223 = format: functional, cell-based, Homo sapiens; details: Homo sapiens, MFM-223
Description: SANGER: Inhibition of human MFM-223 cell growth in a cell viability assay.

A4-Fuk = format: functional, cell-based, Homo sapiens; details: Homo sapiens, A4-Fuk;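 further: growth inhibition of A4-Fuk cells, read out by a cell viability assay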
Description: SANGER: Inhibition of human A4-Fuk cell growth in a cell viability assay.

8-MG-BA = format: functional, cell-based, Homo sapiens; details: Homo sapiens, 8-MG-BA;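 further: growth inhibition of 8-MG-BA cells, read out with a cell viability assay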
Description: SANGER: Inhibition of human 8-MG-BA cell growth in a cell viability assay.

GAK = format: functional, cell-based, Homo sapiens; details: Homo sapiens, GAK;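 further: cell growth inhibition read out by a cell viability assay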
Description: SANGER: Inhibition of human GAK cell growth in a cell viability assay.

MOLT-16 = format: functional, cell-based, Homo sapiens; details: Homo sapiens, MOLT-16;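 further: growth inhibition of human MOLT-16 cells, read out with a cell viability assay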
Description: SANGER: Inhibition of human MOLT-16 cell growth in a cell viability assay.

TGBC24TKB = format: functional, cell-based, Homo sapiens; details: Homo sapiens, TGBC24TKB;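 further: growth inhibition of human TGBC24TKB cells, read out with a cell viability assay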
Description: SANGER: Inhibition of human TGBC24TKB cell growth in a cell viability assay.

NCI-H1838 = format: functional, cell-based, Homo sapiens; details: Homo sapiens, NCI-H1838;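 further: growth inhibition of NCI-H1838 cells, determined with a cell viability readout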
Description: SANGER: Inhibition of human NCI-H1838 cell growth in a cell viability assay.

LS-1034 = format: functional, cell-based, Homo sapiens; details: Homo sapiens, LS-1034
Description: SANGER: Inhibition of human LS-1034 cell growth in a cell viability assay.

NOS-1 = format: functional, cell-based, Homo sapiens; details: Homo sapiens, NOS-1;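 further: growth inhibition of the human NOS-1 cell line, read out with a cell viability assay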
Description: SANGER: Inhibition of human NOS-1 cell growth in a cell viability assay.

NKM-1 = format: functional, cell-based, Homo sapiens; details: Homo sapiens, NKM-1;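 further: growth inhibition of NKM-1 cells, read out with a cell viability assay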
Description: SANGER: Inhibition of human NKM-1 cell growth in a cell viability assay.

697 = format: functional, cell-based, Homo sapiens; details: Homo sapiens
Description: SANGER: Inhibition of human 697 cell growth in a cell viability assay.

SW982 = format: functional, cell-based, Homo sapiens; details: Homo sapiens, SW982;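 further: growth inhibition of SW982 cells, read out with a cell viability assay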
Description: SANGER: Inhibition of human SW982 cell growth in a cell viability assay.

ES4 = format: functional, cell-based, Homo sapiens; details: Homo sapiens, ES4;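 further: growth inhibition of human ES4 cells, read out by a cell viability assay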
Description: SANGER: Inhibition of human ES4 cell growth in a cell viability assay.

EKVX = format: functional, cell-based, Homo sapiens; details: Homo sapiens, EKVX;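 further: growth inhibition of human EKVX cells, read out with a cell viability assay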
Description: SANGER: Inhibition of human EKVX cell growth in a cell viability assay.

NB12 = format: functional, cell-based, Homo sapiens; details: Homo sapiens, NB12;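 further: growth inhibition of human NB12 cells, read out by a cell viability assay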
Description: SANGER: Inhibition of human NB12 cell growth in a cell viability assay.

SH-4 = format: functional, cell-based, Homo sapiens; details: Homo sapiens, SH-4;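 further: growth inhibition of SH-4 cells, read out with a cell viability assay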
Description: SANGER: Inhibition of human SH-4 cell growth in a cell viability assay.

D-392MG = format: functional, cell-based, Homo sapiens; details: Homo sapiens, D-392MG
SW 962 = format: functional, cell-based, Homo sapiens; details: Homo sapiens, SW 962;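 further: growth inhibition of human SW962 cells, read out by a cell viability assay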
Description: SANGER: Inhibition of human SW962 cell growth in a cell viability assay.

L-363 = format: functional, cell-based, Homo sapiens; details: Homo sapiens, L-363
Description: SANGER: Inhibition of human L-363 cell growth in a cell viability assay.

IST-SL1 = format: functional, cell-based, Homo sapiens; details: Homo sapiens, IST-SL1;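 further: growth inhibition of human IST-SL1 cells, read out with a cell viability assay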
Description: SANGER: Inhibition of human IST-SL1 cell growth in a cell viability assay.

SF-268 = format: functional, cell-based, Homo sapiens; details: Homo sapiens, SF-268;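 further: growth inhibition of SF-268 cells determined with a cell viability assay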
Description: SANGER: Inhibition of human SF268 cell growth in a cell viability assay.

NB69 = format: functional, cell-based, Homo sapiens; details: Homo sapiens, NB69;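 further: growth inhibition of NB69 cells, determined by a cell viability assay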
Description: SANGER: Inhibition of human NB69 cell growth in a cell viability assay.

MEG-01 = format: functional, cell-based, Homo sapiens; details: Homo sapiens, MEG-01;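 further: growth inhibition of MEG-01 cells, read out by a cell viability assay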
Description: SANGER: Inhibition of human MEG-01 cell growth in a cell viability assay.

DJM-1 = format: functional, cell-based, Homo sapiens; details: Homo sapiens, DJM-1;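 further: growth inhibition of human DJM-1 cells, read out by a cell viability assay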
Description: SANGER: Inhibition of human DJM-1 cell growth in a cell viability assay.

ES5 = format: functional, cell-based, Homo sapiens; details: Homo sapiens, ES5;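 further: growth inhibition of human ES5 cells, read out by a cell viability assay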
Description: SANGER: Inhibition of human ES5 cell growth in a cell viability assay.

LB2241-RCC = format: functional, cell-based, Homo sapiens; details: Homo sapiens, LB2241-RCC;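 further: cell viability assay measuring how strongly the cultured human renal carcinoma line is prevented from growing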
Description: SANGER: Inhibition of human LB2241-RCC cell growth in a cell viability assay.

NB6 = format: functional, cell-based, Homo sapiens; details: Homo sapiens, NB6
Description: SANGER: Inhibition of human NB6 cell growth in a cell viability assay.

`N#Cc1c(O)c2c(-c3ccc(-c4ccccc4O)cc3)csc2[nH]c1=O` showed an IC50 (TE-8) greater than 1020 nM, an IC50 (HC-1) of 83.1 nM and an IC50 (EW-11) greater than 1020 nM. For the same molecule, the IC50 (LB771-HNC) was greater than 1020 nM, the IC50 (MZ7-mel) was greater than 1020 nM and the IC50 (U-87 MG) was 333 nM. For the same molecule, the IC50 (P30-OHK) was 993 nM, the IC50 (MOLT-4) was 114 nM and the IC50 (RCC10RGB) was greater than 1020 nM. It also gave an IC50 (HD-MY-Z) of 148 nM, an IC50 (ES7) greater than 1020 nM and an IC50 (SW872) greater than 1020 nM. It also gave an IC50 (HAL-01) greater than 1020 nM, an IC50 (NCI-H446) greater than 1020 nM and an IC50 (LB831-BLC) greater than 1020 nM. For the same molecule, the IC50 (SNB-75) was greater than 1020 nM, the IC50 (Mo) was greater than 1020 nM and the IC50 (BV-173) was greater than 1020 nM. It also gave an IC50 (MHH-PREB-1) of 182 nM, an IC50 (HL-60) of 97.4 nM and an IC50 (ETK-1) greater than 1020 nM. The IC50 (TE-5) was greater than 1020 nM, the IC50 (SCC-15) was greater than 1020 nM and the IC50 (MFM-223) was greater than 1020 nM. For the same molecule, the IC50 (A4-Fuk) was greater than 1020 nM, the IC50 (8-MG-BA) was greater than 1020 nM and the IC50 (GAK) was greater than 1020 nM. It also gave an IC50 (MOLT-16) of 61.9 nM, an IC50 (TGBC24TKB) greater than 1020 nM and an IC50 (NCI-H1838) greater than 1020 nM. It also gave an IC50 (LS-1034) greater than 1020 nM, an IC50 (NOS-1) greater than 1020 nM and an IC50 (NKM-1) greater than 1020 nM. The IC50 697 was greater than 1020 nM, the IC50 (SW982) was greater than 1020 nM and the IC50 (ES4) was greater than 1020 nM. The IC50 (EKVX) was greater than 1020 nM, the IC50 (NB12) was greater than 1020 nM and the IC50 (SH-4) was greater than 1020 nM. The IC50 (D-392MG) was greater than 1020 nM, the IC50 (SW 962) was greater than 1020 nM and the IC50 (L-363) was 211 nM. It also gave an IC50 (IST-SL1) greater than 1020 nM, an IC50 (SF-268) greater than 1020 nM and an IC50 (NB69) of 686 nM. It also gave an IC50 (MEG-01) of 269 nM, an IC50 (DJM-1) greater than 1020 nM and an IC50 (ES5) greater than 1020 nM. It also gave an IC50 (LB2241-RCC) greater than 1020 nM and an IC50 (NB6) greater than 1020 nM.

Work on `CO[C@H]1C[C@@H]2CC[C@@H](C)[C@@](O)(O2)C(=O)C(=O)N2CCCC[C@H]2C(=O)O[C@H]([C@H](C)C[C@@H]2CC[C@@H](OC(=O)C(C)(CO)CO)[C@H](OC)C2)CC(=O)[C@H](C)/C=C(\C)[C@@H](O)[C@@H](OC)C(=O)[C@H](C)C[C@H](C)/C=C/C=C/C=C/1C` [TEMSIROLIMUS] yielded an IC50 (TE-8) greater than 200 nM, an IC50 (HC-1) of 101 nM and an IC50 (EW-11) of 15.6 nM. For the same molecule, the IC50 (LB771-HNC) was greater than 200 nM, the IC50 (MZ7-mel) was 161 nM and the IC50 (U-87 MG) was greater than 200 nM. The IC50 (P30-OHK) was greater than 200 nM, the IC50 (MOLT-4) was 4.31 nM and the IC50 (RCC10RGB) was greater than 200 nM. The IC50 (HD-MY-Z) was 21.6 nM, the IC50 (ES7) was 85.9 nM and the IC50 (SW872) was greater than 200 nM. The IC50 (HAL-01) was greater than 200 nM, the IC50 (NCI-H446) was greater than 200 nM and the IC50 (LB831-BLC) was greater than 200 nM. It also gave an IC50 (SNB-75) greater than 200 nM, an IC50 (Mo) greater than 200 nM and an IC50 (BV-173) of 43.8 nM. For the same molecule, the IC50 (MHH-PREB-1) was 0.495 nM, the IC50 (HL-60) was greater than 200 nM and the IC50 (ETK-1) was 31.8 nM. The IC50 (TE-5) was greater than 200 nM, the IC50 (SCC-15) was 128 nM and the IC50 (MFM-223) was greater than 200 nM. The IC50 (A4-Fuk) was 81.8 nM, the IC50 (8-MG-BA) was greater than 200 nM and the IC50 (GAK) was greater than 200 nM. The IC50 (MOLT-16) was 12.8 nM, the IC50 (TGBC24TKB) was 141 nM and the IC50 (NCI-H1838) was greater than 200 nM. The IC50 (LS-1034) was greater than 200 nM, the IC50 (NOS-1) was greater than 200 nM and the IC50 (NKM-1) was 198 nM. The IC50 697 was 1.7 nM, the IC50 (SW982) was greater than 200 nM and the IC50 (ES4) was 37.8 nM. It also gave an IC50 (EKVX) greater than 200 nM, an IC50 (NB12) greater than 200 nM and an IC50 (SH-4) greater than 200 nM. For the same molecule, the IC50 (D-392MG) was greater than 200 nM, the IC50 (SW 962) was 15.6 nM and the IC50 (L-363) was 0.242 nM. It also gave an IC50 (IST-SL1) greater than 200 nM, an IC50 (SF-268) greater than 200 nM and an IC50 (NB69) of 9.46 nM. The IC50 (MEG-01) was 88.2 nM, the IC50 (DJM-1) was greater than 200 nM and the IC50 (ES5) was 61.4 nM. It also gave an IC50 (LB2241-RCC) of 39.3 nM and an IC50 (NB6) greater than 200 nM.

`C=C(c1ccc(C(=O)O)cc1)c1cc2c(cc1C)C(C)(C)CCC2(C)C` [BEXAROTENE] showed an IC50 (TE-8) greater than 8000 nM, an IC50 (HC-1) greater than 8000 nM and an IC50 (EW-11) greater than 8000 nM. For the same molecule, the IC50 (LB771-HNC) was 2500 nM, the IC50 (MZ7-mel) was greater than 8000 nM and the IC50 (U-87 MG) was greater than 8000 nM. It also gave an IC50 (P30-OHK) greater than 8000 nM, an IC50 (MOLT-4) greater than 8000 nM and an IC50 (RCC10RGB) greater than 8000 nM. For the same molecule, the IC50 (HD-MY-Z) was greater than 8000 nM, the IC50 (ES7) was greater than 8000 nM and the IC50 (SW872) was greater than 8000 nM. The IC50 (HAL-01) was greater than 8000 nM, the IC50 (NCI-H446) was greater than 8000 nM and the IC50 (LB831-BLC) was greater than 8000 nM. For the same molecule, the IC50 (SNB-75) was greater than 8000 nM, the IC50 (Mo) was greater than 8000 nM and the IC50 (BV-173) was greater than 8000 nM. For the same molecule, the IC50 (MHH-PREB-1) was greater than 8000 nM, the IC50 (HL-60) was greater than 8000 nM and the IC50 (ETK-1) was greater than 8000 nM. It also gave an IC50 (TE-5) greater than 8000 nM, an IC50 (SCC-15) greater than 8000 nM and an IC50 (MFM-223) greater than 8000 nM. For the same molecule, the IC50 (A4-Fuk) was greater than 8000 nM, the IC50 (8-MG-BA) was greater than 8000 nM and the IC50 (GAK) was greater than 8000 nM. The IC50 (MOLT-16) was greater than 8000 nM, the IC50 (TGBC24TKB) was greater than 8000 nM and the IC50 (NCI-H1838) was greater than 8000 nM. For the same molecule, the IC50 (LS-1034) was greater than 8000 nM, the IC50 (NOS-1) was 6920 nM and the IC50 (NKM-1) was greater than 8000 nM. For the same molecule, the IC50 697 was greater than 8000 nM, the IC50 (SW982) was greater than 8000 nM and the IC50 (ES4) was 3770 nM. For the same molecule, the IC50 (EKVX) was 165 nM, the IC50 (NB12) was greater than 8000 nM and the IC50 (SH-4) was 5310 nM. For the same molecule, the IC50 (D-392MG) was greater than 8000 nM, the IC50 (SW 962) was greater than 8000 nM and the IC50 (L-363) was greater than 8000 nM. For the same molecule, the IC50 (IST-SL1) was greater than 8000 nM, the IC50 (SF-268) was greater than 8000 nM and the IC50 (NB69) was greater than 8000 nM. For the same molecule, the IC50 (MEG-01) was greater than 8000 nM, the IC50 (DJM-1) was greater than 8000 nM and the IC50 (ES5) was greater than 8000 nM. The IC50 (LB2241-RCC) was greater than 8000 nM and the IC50 (NB6) was greater than 8000 nM.
